Source: paper PMC5290327, “SC83288 is a clinical development candidate for the treatment of severe malaria” (Nature Communications, 2017)

Columns and labels:
Assay in all cases: KINOMEscan
Assay type in all cases: binding
Conditions in all cases: read-out: Remaining enzyme activity
ABL1 = target: T1, ABL1 (Homo sapiens, UniProt P00519)
T1 construct: purchased Ambit (DiscoverX) KINOMEscan; Cerep
Method in brief: (§1)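 SC81458 was screened at a single 10 μM final concentration for its ability to compete with an immobilized, active-site directed ligand for each kinase. Kinase in the eluates was measured by quantitative PCR. Beads were blocked with biotin and SeaBlock buffer holding 1% BSA, 0.05% Tween 20 and 1 mM DTT.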

AURKA = target: T2, AURKA (Homo sapiens, UniProt O14965)
T2 construct: purchased Ambit (DiscoverX) KINOMEscan; Cerep
Method in brief: as §1

BIKE = target: T3, BIKE (Homo sapiens, UniProt Q9NSY1)
T3 construct: purchased Ambit (DiscoverX) KINOMEscan; Cerep
Method in brief: as §1

BMPR1a = target: T4, BMPR1a (Homo sapiens, UniProt P36894)
T4 construct: purchased Ambit (DiscoverX) KINOMEscan; Cerep
Method in brief: as §1

BRAF(V600E) = target: T5, BRAF(V600E) (Homo sapiens, UniProt P15056, V600E)
T5 construct: purchased Ambit (DiscoverX) KINOMEscan; Cerep
T5 sequence (P15056 whole entry V600E): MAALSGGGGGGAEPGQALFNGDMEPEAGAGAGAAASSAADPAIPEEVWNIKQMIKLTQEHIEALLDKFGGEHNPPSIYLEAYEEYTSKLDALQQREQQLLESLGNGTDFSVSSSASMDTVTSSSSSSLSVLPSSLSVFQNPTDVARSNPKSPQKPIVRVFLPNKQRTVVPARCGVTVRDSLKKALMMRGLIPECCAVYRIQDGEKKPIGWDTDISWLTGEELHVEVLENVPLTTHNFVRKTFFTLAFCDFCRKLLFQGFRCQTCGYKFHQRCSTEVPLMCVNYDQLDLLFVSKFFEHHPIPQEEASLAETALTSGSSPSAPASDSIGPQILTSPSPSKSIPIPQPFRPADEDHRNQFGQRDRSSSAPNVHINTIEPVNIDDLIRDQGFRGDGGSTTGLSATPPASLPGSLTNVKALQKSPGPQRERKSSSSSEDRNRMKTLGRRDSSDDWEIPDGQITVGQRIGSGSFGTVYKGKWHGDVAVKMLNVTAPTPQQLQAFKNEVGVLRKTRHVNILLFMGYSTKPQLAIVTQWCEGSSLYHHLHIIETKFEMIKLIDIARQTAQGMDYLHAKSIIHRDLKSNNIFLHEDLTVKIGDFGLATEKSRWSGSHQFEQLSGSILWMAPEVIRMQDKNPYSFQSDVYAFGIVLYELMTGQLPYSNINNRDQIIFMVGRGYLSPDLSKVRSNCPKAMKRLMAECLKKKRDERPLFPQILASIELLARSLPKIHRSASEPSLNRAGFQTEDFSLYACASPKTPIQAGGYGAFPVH
Method in brief: as §1

BRK = target: T6, BRK (Homo sapiens, UniProt Q13882)
T6 construct: purchased Ambit (DiscoverX) KINOMEscan; Cerep
Method in brief: as §1

CAMK2a = target: T7, CAMK2a (Homo sapiens, UniProt Q9UQM7)
T7 construct: purchased Ambit (DiscoverX) KINOMEscan; Cerep
Method in brief: as §1

CDK3 = target: T8, CDK3 (Homo sapiens, UniProt Q00526)
T8 construct: purchased Ambit (DiscoverX) KINOMEscan; Cerep
Method in brief: as §1

CDKL2 = target: T9, CDKL2 (Homo sapiens, UniProt Q92772)
T9 construct: purchased Ambit (DiscoverX) KINOMEscan; Cerep
T9 sequence (Q92772 whole entry): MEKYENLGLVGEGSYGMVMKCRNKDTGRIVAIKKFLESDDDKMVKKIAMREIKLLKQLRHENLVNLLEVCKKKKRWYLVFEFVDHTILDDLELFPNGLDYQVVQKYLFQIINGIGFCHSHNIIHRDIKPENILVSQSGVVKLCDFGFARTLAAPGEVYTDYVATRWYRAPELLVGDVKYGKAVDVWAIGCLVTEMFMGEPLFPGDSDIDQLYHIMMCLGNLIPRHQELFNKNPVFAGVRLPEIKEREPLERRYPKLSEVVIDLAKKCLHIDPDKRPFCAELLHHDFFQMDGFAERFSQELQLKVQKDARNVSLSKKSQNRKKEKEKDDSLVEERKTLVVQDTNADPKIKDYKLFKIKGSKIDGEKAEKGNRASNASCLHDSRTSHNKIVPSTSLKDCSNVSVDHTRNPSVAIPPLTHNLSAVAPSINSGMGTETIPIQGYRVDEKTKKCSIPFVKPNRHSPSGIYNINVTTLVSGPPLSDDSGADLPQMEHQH
Method in brief: as §1

CSNK1a1l = target: T10, CSNK1a1l (Homo sapiens, UniProt Q8N752)
T10 construct: purchased Ambit (DiscoverX) KINOMEscan; Cerep
Method in brief: as §1

CSNK1d = target: T11, CSNK1d (Homo sapiens, UniProt P48730)
T11 construct: purchased Ambit (DiscoverX) KINOMEscan; Cerep
Method in brief: as §1

CSNK1g2 = target: T12, CSNK1g2 (Homo sapiens, UniProt P78368)
T12 construct: purchased Ambit (DiscoverX) KINOMEscan; Cerep
T12 sequence (P78368 whole entry): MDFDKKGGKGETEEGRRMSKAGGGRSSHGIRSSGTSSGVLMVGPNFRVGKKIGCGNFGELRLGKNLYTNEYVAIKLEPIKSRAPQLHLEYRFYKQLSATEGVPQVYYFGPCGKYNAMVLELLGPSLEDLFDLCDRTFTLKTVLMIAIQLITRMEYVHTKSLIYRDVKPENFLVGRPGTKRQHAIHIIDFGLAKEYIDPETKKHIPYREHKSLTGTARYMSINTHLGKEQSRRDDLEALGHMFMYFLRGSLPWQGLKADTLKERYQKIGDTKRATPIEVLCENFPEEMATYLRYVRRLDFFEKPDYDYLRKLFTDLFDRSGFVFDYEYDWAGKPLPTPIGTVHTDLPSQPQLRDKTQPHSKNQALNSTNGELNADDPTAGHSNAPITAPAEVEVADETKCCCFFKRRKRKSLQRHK
Method in brief: as §1

CSNK2a2 = target: T13, CSNK2a2 (Homo sapiens, UniProt P19784)
T13 construct: purchased Ambit (DiscoverX) KINOMEscan; Cerep
Method in brief: as §1

EGFR(G719C) = target: T14, EGFR(G719C) (Homo sapiens, UniProt P00533, G719C)
T14 construct: purchased Ambit (DiscoverX) KINOMEscan; Cerep
Method in brief: as §1

EPHB2 = target: T15, EPHB2 (Homo sapiens, UniProt P29323)
T15 construct: purchased Ambit (DiscoverX) KINOMEscan; Cerep
Method in brief: as §1

KIT(V559D, V654A) = target: T16, KIT(V559D, V654A) (Homo sapiens, UniProt P10721, V559D/V654A)
T16 construct: purchased Ambit (DiscoverX) KINOMEscan; Cerep
Method in brief: as §1

MAP3K2 = target: T17, MAP3K2 (Homo sapiens, UniProt Q9Y2U5)
T17 construct: purchased Ambit (DiscoverX) KINOMEscan; Cerep
Method in brief: as §1

MAPKAPK5 = target: T18, MAPKAPK5 (Homo sapiens, UniProt Q8IW41)
T18 construct: purchased Ambit (DiscoverX) KINOMEscan; Cerep
Method in brief: as §1

MEK2 = target: T19, MEK2 (Homo sapiens, UniProt P36507)
T19 construct: purchased Ambit (DiscoverX) KINOMEscan; Cerep
T19 sequence (P36507 whole entry): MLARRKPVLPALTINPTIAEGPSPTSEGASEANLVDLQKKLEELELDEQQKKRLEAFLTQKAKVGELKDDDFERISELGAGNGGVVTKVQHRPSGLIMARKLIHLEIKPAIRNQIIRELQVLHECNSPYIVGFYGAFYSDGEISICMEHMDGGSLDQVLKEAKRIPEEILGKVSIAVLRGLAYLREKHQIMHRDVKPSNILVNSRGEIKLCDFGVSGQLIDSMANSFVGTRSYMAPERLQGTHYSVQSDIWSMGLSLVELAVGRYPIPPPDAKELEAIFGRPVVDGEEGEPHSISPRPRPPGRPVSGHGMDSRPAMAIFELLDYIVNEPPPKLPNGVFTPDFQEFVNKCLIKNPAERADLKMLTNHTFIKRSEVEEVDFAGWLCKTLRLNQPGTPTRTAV
Method in brief: as §1

MLK3 = target: T20, MLK3 (Homo sapiens, UniProt Q16584)
T20 construct: purchased Ambit (DiscoverX) KINOMEscan; Cerep
Method in brief: as §1

MST1 = target: T21, MST1 (Homo sapiens, UniProt Q13043)
T21 construct: purchased Ambit (DiscoverX) KINOMEscan; Cerep
T21 sequence (Q13043 whole entry): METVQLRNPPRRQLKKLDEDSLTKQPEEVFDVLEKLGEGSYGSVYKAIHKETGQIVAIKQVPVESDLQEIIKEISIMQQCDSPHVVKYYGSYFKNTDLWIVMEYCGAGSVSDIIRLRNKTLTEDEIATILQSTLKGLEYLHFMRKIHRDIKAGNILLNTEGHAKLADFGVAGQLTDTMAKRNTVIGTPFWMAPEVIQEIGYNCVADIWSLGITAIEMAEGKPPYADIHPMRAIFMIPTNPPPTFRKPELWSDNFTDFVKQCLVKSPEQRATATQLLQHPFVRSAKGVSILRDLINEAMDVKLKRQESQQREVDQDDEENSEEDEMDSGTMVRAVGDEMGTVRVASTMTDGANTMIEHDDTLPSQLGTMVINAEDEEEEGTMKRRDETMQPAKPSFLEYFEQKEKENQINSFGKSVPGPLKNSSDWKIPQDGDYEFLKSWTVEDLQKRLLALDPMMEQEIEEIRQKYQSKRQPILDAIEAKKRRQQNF
Method in brief: as §1

MYO3a = target: T22, MYO3a (Homo sapiens, UniProt Q8NEV4)
T22 construct: purchased Ambit (DiscoverX) KINOMEscan; Cerep
Method in brief: as §1

OSR1 = target: T23, OSR1 (Homo sapiens, UniProt O95747)
T23 construct: purchased Ambit (DiscoverX) KINOMEscan; Cerep
Method in brief: as §1

PRKCQ = target: T24, PRKCQ (Homo sapiens, UniProt Q04759)
T24 construct: purchased Ambit (DiscoverX) KINOMEscan; Cerep
T24 sequence (Q04759 whole entry): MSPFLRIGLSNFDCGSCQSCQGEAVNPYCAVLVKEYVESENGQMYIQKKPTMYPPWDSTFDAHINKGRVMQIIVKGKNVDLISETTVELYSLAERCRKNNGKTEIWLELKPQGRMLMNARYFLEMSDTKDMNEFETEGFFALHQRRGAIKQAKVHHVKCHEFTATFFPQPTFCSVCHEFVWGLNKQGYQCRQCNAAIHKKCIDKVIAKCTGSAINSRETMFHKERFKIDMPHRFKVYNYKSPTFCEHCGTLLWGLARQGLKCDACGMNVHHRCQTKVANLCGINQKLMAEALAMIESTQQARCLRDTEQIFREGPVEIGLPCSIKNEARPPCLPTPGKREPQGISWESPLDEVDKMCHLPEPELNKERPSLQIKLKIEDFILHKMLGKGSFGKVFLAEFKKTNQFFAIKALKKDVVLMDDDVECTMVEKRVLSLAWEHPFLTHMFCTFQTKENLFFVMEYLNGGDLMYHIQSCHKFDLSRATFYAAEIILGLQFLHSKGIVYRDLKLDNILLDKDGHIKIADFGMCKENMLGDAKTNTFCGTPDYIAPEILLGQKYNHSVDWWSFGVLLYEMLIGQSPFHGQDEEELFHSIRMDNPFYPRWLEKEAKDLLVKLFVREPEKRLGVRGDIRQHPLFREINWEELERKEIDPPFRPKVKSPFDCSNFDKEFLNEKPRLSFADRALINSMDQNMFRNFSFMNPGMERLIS
Method in brief: as §1

PRKR = target: T25, PRKR (Homo sapiens, UniProt P19525)
T25 construct: purchased Ambit (DiscoverX) KINOMEscan; Cerep
Method in brief: as §1

RIPK2 = target: T26, RIPK2 (Homo sapiens, UniProt O43353)
T26 construct: purchased Ambit (DiscoverX) KINOMEscan; Cerep
Method in brief: as §1

[1] = target: T27, RPS6KA6(Kin.Dom.2-C-term) (Homo sapiens, UniProt Q9UK32)
T27 construct: RPS6KA6(Kin.Dom.2-C-term); purchased Ambit (DiscoverX) KINOMEscan; Cerep
T27 sequence (Q9UK32 426-683 limits assumed): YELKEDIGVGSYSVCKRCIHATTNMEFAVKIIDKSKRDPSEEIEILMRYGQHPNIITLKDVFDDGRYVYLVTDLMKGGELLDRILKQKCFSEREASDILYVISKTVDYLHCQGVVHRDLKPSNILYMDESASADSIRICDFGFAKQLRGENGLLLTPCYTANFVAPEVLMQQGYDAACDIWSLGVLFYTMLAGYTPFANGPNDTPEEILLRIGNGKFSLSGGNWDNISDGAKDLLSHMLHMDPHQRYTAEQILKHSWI
Method in brief: as §1

SRPK1 = target: T28, SRPK1 (Homo sapiens, UniProt Q96SB4)
T28 construct: purchased Ambit (DiscoverX) KINOMEscan; Cerep
T28 sequence (Q96SB4 whole entry): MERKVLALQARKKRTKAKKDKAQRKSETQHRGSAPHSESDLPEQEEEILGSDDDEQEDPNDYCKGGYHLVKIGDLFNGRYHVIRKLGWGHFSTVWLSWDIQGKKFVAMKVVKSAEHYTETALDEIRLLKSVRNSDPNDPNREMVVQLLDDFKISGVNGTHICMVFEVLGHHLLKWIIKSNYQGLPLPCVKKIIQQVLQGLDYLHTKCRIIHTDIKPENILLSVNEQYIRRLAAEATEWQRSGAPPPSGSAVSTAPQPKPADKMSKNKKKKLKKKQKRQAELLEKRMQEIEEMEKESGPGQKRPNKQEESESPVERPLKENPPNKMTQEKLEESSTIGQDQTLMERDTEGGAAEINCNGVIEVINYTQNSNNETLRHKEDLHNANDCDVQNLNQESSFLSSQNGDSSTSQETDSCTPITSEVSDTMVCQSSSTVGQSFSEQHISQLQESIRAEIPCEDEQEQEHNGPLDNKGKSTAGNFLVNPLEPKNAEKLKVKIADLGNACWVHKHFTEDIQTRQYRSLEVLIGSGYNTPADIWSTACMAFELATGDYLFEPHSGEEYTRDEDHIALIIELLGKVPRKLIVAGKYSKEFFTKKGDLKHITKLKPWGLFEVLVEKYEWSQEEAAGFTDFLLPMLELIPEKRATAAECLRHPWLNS
Method in brief: as §1

STK36 = target: T29, STK36 (Homo sapiens, UniProt Q9NRP7)
T29 construct: purchased Ambit (DiscoverX) KINOMEscan; Cerep
Method in brief: as §1

TLK1 = target: T30, TLK1 (Homo sapiens, UniProt Q9UKI8)
T30 construct: purchased Ambit (DiscoverX) KINOMEscan; Cerep
Method in brief: as §1

TNIK = target: T31, TNIK (Homo sapiens, UniProt Q9UKE5)
T31 construct: purchased Ambit (DiscoverX) KINOMEscan; Cerep
Method in brief: as §1

TNK2 = target: T32, TNK2 (Homo sapiens, UniProt Q07912)
T32 construct: purchased Ambit (DiscoverX) KINOMEscan; Cerep
Method in brief: as §1

YES = target: T33, YES (Homo sapiens, UniProt P07947)
T33 construct: purchased Ambit (DiscoverX) KINOMEscan; Cerep
T33 sequence (P07947 whole entry): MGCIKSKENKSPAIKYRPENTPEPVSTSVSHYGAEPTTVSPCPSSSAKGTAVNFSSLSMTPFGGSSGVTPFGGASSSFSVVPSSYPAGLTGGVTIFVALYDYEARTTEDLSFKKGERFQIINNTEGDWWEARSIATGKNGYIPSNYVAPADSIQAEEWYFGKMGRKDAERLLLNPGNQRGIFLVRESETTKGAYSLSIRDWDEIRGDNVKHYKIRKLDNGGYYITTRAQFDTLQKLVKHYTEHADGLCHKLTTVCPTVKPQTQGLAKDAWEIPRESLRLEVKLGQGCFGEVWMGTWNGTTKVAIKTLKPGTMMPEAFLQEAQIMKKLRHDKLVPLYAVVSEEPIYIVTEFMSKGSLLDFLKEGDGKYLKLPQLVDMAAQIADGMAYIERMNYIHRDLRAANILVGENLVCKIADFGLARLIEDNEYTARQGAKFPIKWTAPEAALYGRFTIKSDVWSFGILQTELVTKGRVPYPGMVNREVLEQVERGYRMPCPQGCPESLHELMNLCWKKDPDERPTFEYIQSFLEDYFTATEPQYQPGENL
Method in brief: as §1

Work on `CCCCN1CCN(C(=N)c2cccc(NC(=O)Nc3ccc(S(=O)(=O)NCc4ccc(S(N)(=O)=O)cc4)cc3)c2)CC1` [SC81458, 4-(3-(3-((4-butylpiperazin-1-yl)(imino)methyl)phenyl)ureido)-N-(4-sulfamoylbenzyl) benzenesulfonamide] yielded a remaining binding at 10 µM (ABL1) of 100%, a remaining binding at 10 µM (AURKA) of 68% and a remaining binding at 10 µM (BIKE) of 85%. It also gave a remaining binding at 10 µM (BMPR1a) of 100%, a remaining binding at 10 µM (BRAF(V600E)) of 100% and a remaining binding at 10 µM (BRK) of 100%. For the same molecule, the remaining binding at 10 µM (CAMK2a) was 100%, the remaining binding at 10 µM (CDK3) was 100% and the remaining binding at 10 µM (CDKL2) was 100%. The remaining binding at 10 µM (CSNK1a1l) was 100%, the remaining binding at 10 µM (CSNK1d) was 100% and the remaining binding at 10 µM (CSNK1g2) was 100%. For the same molecule, the remaining binding at 10 µM (CSNK2a2) was 78%, the remaining binding at 10 µM (EGFR(G719C)) was 80% and the remaining binding at 10 µM (EPHB2) was 100%. It also gave a remaining binding at 10 µM (KIT(V559D, V654A)) of 100%, a remaining binding at 10 µM (MAP3K2) of 100% and a remaining binding at 10 µM (MAPKAPK5) of 91%. For the same molecule, the remaining binding at 10 µM (MEK2) was 100%, the remaining binding at 10 µM (MLK3) was 100% and the remaining binding at 10 µM (MST1) was 100%. It also gave a remaining binding at 10 µM (MYO3a) of 100%, a remaining binding at 10 µM (OSR1) of 100% and a remaining binding at 10 µM (PRKCQ) of 100%. It also gave a remaining binding at 10 µM (PRKR) of 91%, a remaining binding at 10 µM (RIPK2) of 96% and a remaining binding at 10 µM [1] of 100%. The remaining binding at 10 µM (SRPK1) was 100%, the remaining binding at 10 µM (STK36) was 100% and the remaining binding at 10 µM (TLK1) was 100%. For the same molecule, the remaining binding at 10 µM (TNIK) was 100%, the remaining binding at 10 µM (TNK2) was 94% and the remaining binding at 10 µM (YES) was 97%.
